Laboratory results published in PubChem BioAssay (NCI).
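Growth conditions: 96-well plates. Treatment: test compound, 48 hours, 5 concentrations. Analysis: linear interpolation between bracketing concentrations; unreached endpoints set to highest concentration. Here, GI50 denotes the concentration required for 50% inhibition of growth. TGI marks complete inhibition of growth.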

Legend:
Assay in all cases: growth of human tumour cells (NCI), 48 h
[1] = system: SK-MEL-28 melanoma
[2] = system: SR leukemia
[3] = system: SN12C renal
[4] = system: M14 melanoma
[5] = system: MALME-3M melanoma
[6] = system: NCI/ADR-RES ovarian
[7] = system: KM12 colon
[8] = system: MOLT-4 leukemia
[9] = system: HCT-116 colon
[10] = system: A549 NSCLC
[11] = system: 786-0 renal
[12] = system: OVCAR-8 ovarian
[13] = system: PC-3 prostate
[14] = system: HOP-62 NSCLC
[15] = system: LOX IMVI melanoma
[16] = system: NCI-H23 lung
[17] = system: SW-620 colon
[18] = system: RPMI-8226 leukemia
[19] = system: SK-MEL-5 melanoma
[20] = system: IGROV1 ovarian
[21] = system: UACC-62 melanoma
[22] = system: HS 578T breast
[23] = system: COLO 205 colon
[24] = system: OVCAR-5 ovarian
[25] = system: HT29 colon
[26] = system: SF-268 CNS
[27] = system: OVCAR-4 ovarian
[28] = system: SF-295 CNS
[29] = system: UACC-257 melanoma
[30] = system: HL-60(TB) leukemia
[31] = system: SK-OV-3 ovarian
[32] = system: SNB-75 CNS
[33] = system: HCT-15 colon
[34] = system: NCI-H522 lung
[35] = system: OVCAR-3 ovarian
[36] = system: EKVX NSCLC
[37] = system: CAKI-1 renal
[38] = system: NCI-H460 lung
[39] = system: T-47D breast
[40] = system: NCI-H226 lung
[41] = system: SK-MEL-2 melanoma
[42] = system: ACHN renal
[43] = system: MCF7 breast
[44] = system: RXF 393 renal
[45] = system: DU-145 prostate
[46] = system: UO-31 renal
[47] = system: K-562 leukemia
[48] = system: U251 CNS
[49] = system: MDA-MB-435
[50] = system: SNB-19 CNS
[51] = system: TK-10 renal
[52] = system: MDA-MB-231 breast
[53] = system: SF-539 CNS
[54] = system: HOP-92 NSCLC
[55] = system: A498 renal
[56] = system: HCC-2998 colon

C/C(=C\COP(=O)(O)OP(=O)(O)O)CCCOCc1ccccc1
TGI [1]: > 100 µM | TGI [2]: > 100 µM | TGI [3]: > 100 µM | TGI [4]: > 100 µM | TGI [5]: > 100 µM | TGI [6]: > 100 µM | TGI [7]: > 100 µM | TGI [8]: > 100 µM | TGI [9]: > 100 µM | TGI [10]: > 100 µM | TGI [11]: > 100 µM | TGI [12]: > 100 µM | TGI [13]: > 100 µM | TGI [14]: > 100 µM | TGI [15]: > 100 µM | TGI [16]: > 100 µM | TGI [17]: > 100 µM | TGI [18]: > 100 µM | TGI [19]: > 100 µM | TGI [20]: > 100 µM | TGI [21]: > 100 µM | TGI [22]: > 100 µM | TGI [23]: > 100 µM | TGI [24]: > 100 µM | TGI [25]: > 100 µM | TGI [26]: > 100 µM | TGI [27]: > 100 µM | TGI [28]: > 100 µM | TGI [29]: > 100 µM | TGI [30]: > 100 µM | TGI [31]: > 100 µM | TGI [32]: > 100 µM | TGI [33]: > 100 µM | TGI [34]: > 100 µM | TGI [35]: > 100 µM | TGI [36]: > 100 µM | TGI [37]: > 100 µM | TGI [38]: > 100 µM | TGI [39]: > 100 µM | TGI [40]: > 100 µM | TGI [41]: > 100 µM | TGI [42]: > 100 µM | TGI [43]: > 100 µM | TGI [44]: > 100 µM | TGI [45]: > 100 µM | TGI [46]: > 100 µM | TGI [47]: > 100 µM | TGI [48]: > 100 µM | TGI [49]: > 100 µM | TGI [50]: > 100 µM | TGI [51]: > 100 µM | TGI [52]: > 100 µM | TGI [53]: > 100 µM

O=C(Nc1ccc(Cl)cc1)Nc1ccc(Cl)c(C(F)(F)F)c1
GI50 [1]: 3.51 µM | TGI [1]: 11.9 µM | GI50 [3]: 2.29 µM | TGI [3]: 10.5 µM | GI50 [4]: 3.59 µM | TGI [4]: 12.3 µM | GI50 [6]: 3.07 µM | TGI [6]: 10.5 µM | GI50 [7]: 2.21 µM | TGI [7]: 6.56 µM | GI50 [8]: 1.72 µM | TGI [8]: 4.4 µM | GI50 [9]: 1.95 µM | TGI [9]: 5.33 µM | GI50 [10]: 3.39 µM | TGI [10]: 15.8 µM | GI50 [11]: 2.75 µM | TGI [11]: 10.7 µM | GI50 [12]: 4.04 µM | TGI [12]: 18.8 µM | GI50 [13]: 2.35 µM | TGI [13]: 10.8 µM | GI50 [14]: 3 µM | TGI [14]: 11.3 µM | GI50 [15]: 3.31 µM | TGI [15]: 11.6 µM | GI50 [16]: 2.21 µM | TGI [16]: 11 µM | GI50 [17]: 2.93 µM | TGI [17]: 9.66 µM | GI50 [19]: 1.55 µM | TGI [19]: 2.99 µM | GI50 [20]: 4.01 µM | TGI [20]: 16.2 µM | GI50 [21]: 2.71 µM | TGI [21]: 14.7 µM | GI50 [54]: 1.55 µM | TGI [54]: 5.03 µM | GI50 [22]: 2.68 µM | TGI [22]: 8.31 µM | GI50 [23]: 1.63 µM | TGI [23]: 3.01 µM | GI50 [24]: 4.52 µM | TGI [24]: 14.9 µM | GI50 [25]: 2.86 µM | TGI [25]: 10.7 µM | GI50 [26]: 3.54 µM | TGI [26]: 12.2 µM | GI50 [27]: 2.33 µM | TGI [27]: 11.4 µM | GI50 [28]: 1.97 µM | TGI [28]: 8.87 µM | GI50 [29]: 3.44 µM | TGI [29]: 11.8 µM | GI50 [30]: 1.74 µM | TGI [30]: 3.91 µM | GI50 [31]: 2.37 µM | TGI [31]: 6.8 µM | GI50 [32]: 1.97 µM | TGI [32]: 7.73 µM | GI50 [33]: 2.65 µM | TGI [33]: 11.6 µM | GI50 [34]: 4.05 µM | TGI [34]: 29.1 µM | GI50 [35]: 1.86 µM | TGI [35]: 7.76 µM | GI50 [36]: 2.48 µM | TGI [36]: 11 µM | GI50 [37]: 2.27 µM | TGI [37]: 8.84 µM | GI50 [38]: 1.7 µM | TGI [38]: 6.44 µM | GI50 [39]: 1.22 µM | TGI [39]: 5.49 µM | GI50 [41]: 3.25 µM | TGI [41]: 10 µM | GI50 [55]: 2.38 µM | TGI [55]: 6.26 µM | GI50 [42]: 3.04 µM | TGI [42]: 12.1 µM | GI50 [43]: 2.16 µM | TGI [43]: 7.85 µM | GI50 [45]: 3.66 µM | TGI [45]: 12.4 µM | GI50 [46]: 2.54 µM | TGI [46]: 10.2 µM | GI50 [47]: 1.06 µM | TGI [47]: 2.95 µM | GI50 [48]: 2.8 µM | TGI [48]: 11.4 µM | GI50 [49]: 2.45 µM | TGI [49]: 8.13 µM | GI50 [50]: 3.21 µM | TGI [50]: 12.6 µM | GI50 [56]: 3.12 µM | TGI [56]: 8.81 µM | GI50 [51]: 4.25 µM | TGI [51]: 19.2 µM | GI50 [52]: 1.75 µM | TGI [52]: 3.91 µM | GI50 [53]: 2.61 µM | TGI [53]: 10.1 µM
